From ChEMBL document CHEMBL1127906, “Design and synthesis of novel muscarinic agonists containing the 1,2,4-triazine ring as an ester bioisostere” (Bioorg Med Chem Lett, 1994)

Experiments:
[1] = biological target: Muscarinic acetylcholine receptor; test: Ability to inhibit [3H]oxotremorine-M (OXO-M) binding in rat cerebral cortex; format: tissue-based
[2] = biological target: Muscarinic acetylcholine receptor; test: Ability to inhibit [3H]quinuclidinyl benzilate(QNB) binding in rat cerebral cortex, activity expressed as IC50.; format: tissue-based
[3] = biological target: Muscarinic acetylcholine receptor (Rattus norvegicus) (UniProt P08482+P08483+P08485+P08911+P10980); test: Ratio of IC50 values for inhibition of QNB and OXO-M was measured for efficacy of the compound

COc1nncc([C@H]2CN3CC[C@H]2C3)n1
IC50 [1]: 140 nM | IC50 [2]: 2400 nM | Ratio [3]: 17

Cc1nncc(C23CCCN(CC2)C3)n1 (stereo not given)
IC50 [1]: 33 nM | IC50 [2]: 1800 nM | Ratio [3]: 55

c1nncc([C@H]2CN3CC[C@H]2C3)n1
IC50 [1]: 3.8 nM | IC50 [2]: 1400 nM | Ratio [3]: 370

Cc1nncc(C23CCN(CC2)C3)n1
IC50 [1]: 70 nM | IC50 [2]: 4100 nM | Ratio [3]: 59

Nc1nncc([C@H]2CN3CC[C@H]2C3)n1
IC50 [1]: 2.1 nM | IC50 [2]: 990 nM | Ratio [3]: 460

Cc1nncc(C2CN3CCC2CC3)n1 (stereo not given)
IC50 [1]: 4 nM | IC50 [2]: 225 nM | Ratio [3]: 56

Cc1noc([C@H]2CN3CC[C@H]2C3)n1
IC50 [1]: 2.8 nM | IC50 [2]: 1000 nM | Ratio [3]: 360

CCc1nncc([C@H]2CN3CC[C@H]2C3)n1
IC50 [1]: 46 nM | IC50 [2]: 410 nM | Ratio [3]: 9

CSc1nncc([C@H]2CN3CC[C@H]2C3)n1
IC50 [1]: 290 nM | IC50 [2]: 1300 nM | Ratio [3]: 4.5

Cc1nncc([C@H]2CN3CC[C@H]2C3)n1
IC50 [1]: 3.9 nM | IC50 [2]: 410 nM | Ratio [3]: 105
